Test results published in patent US9090600B2, “Fungicidal 4-substituted-3-{phenyl[(heterocyclylmethoxy)imino]methyl}-1,2,4-oxadizol-5(4H)-one derivatives” (BAYER INTELLECTUAL PROPERTY GMBH, priority 2011, dated 2015).
Read-outs that look alike come from different tables or passages of the source. Marks after values point to notes of the source that are not given here.

How the values were obtained:
Botrytis cinerea = assay: In vivo test on Botrytis cinerea (grey mould); conditions: gherkin plants, spray, 500 ppm, grading 4/5 days after contamination
Description: The active ingredients tested are prepared by homogenization in a mixture of acetone/Tween/DMSO, then diluted with water to obtain the desired active material
Gherkin plants (Vert petit de Paris variety), sown on a 50/50 peat soil-pozzolana substrate in starter cups and grown at 18-20° C., are treated at the cotyledon Z11 stage by spraying with the active ingredient prepared as described above.
Plants, used as controls, are treated with an aqueous solution not containing the active material. After 24 hours, the plants are contaminated by spraying them with an aqueous suspension of cryopreserved Botrytis cinerea spores (50.000 spores per ml) on upper surface of the leaves. The spores are suspended in a nutrient solution composed of: • 10 g/L of PDB; • 50 g/L of D-fructose; • 2 g/L of NH4NO3; • 1 g/L of KH2PO4.
The contaminated cucumber plants are settled for 4/5 days in a climatic room at 17° C. (day/night) and at 80% relative humidity.
Grading is carried out 4/5 days after the contamination, in comparison with the control plants.
(§1) Under these conditions, good (at least 70%) or total protection is observed at a dose of 500 ppm with the following compounds: […]

[1] = pH 2.7
Phytophthora infestans [2] = assay type: in vivo; conditions: tomato plants, spray, 500 ppm, grading 5 days after contamination
Alternaria brassicae = assay: In vivo test on Alternaria brassicae (leaf spot of crucifers); conditions: radish plants, spray, 500 ppm, grading 6 to 7 days after contamination
Description: (§2) The active ingredients tested are prepared by homogenization in a mixture of acetone/tween/DMSO, then diluted with water to obtain the desired active material.
Radish plants (Pernot variety), sown on a 50/50 peat soil-pozzolana substrate in starter cups and grown at 18-20° C., are treated at the cotyledon stage by spraying with the active ingredient prepared as described above.
Plants, used as controls, are treated with the mixture of acetone/tween/water not containing the active material.
After 24 hours, the plants are contaminated by spraying them with an aqueous suspension of Alternaria brassicae spores (40,000 spores per cm^3). The spores are collected from a 12 to 13 days-old culture.
The contaminated radish plants are incubated for 6-7 days at about 18° C., under a humid atmosphere.
Grading is carried out 6 to 7 days after the contamination, in comparison with the control plants.
Under these conditions, good protection (at least 70%) is observed at a dose of 500 ppm with the following compounds: […]

Pyrenophora teres = assay: In vivo test on Pyrenophora teres (barley net blotch); conditions: barley plants, spray, 500 ppm, grading 12 days after contamination
Description: The active ingredients tested are prepared by homogenization in a mixture of acetone/Tween/DMSO, then diluted with water to obtain the desired active material concentration.
Barley plants (Plaisant variety), sown on a 50/50 peat soil-pozzolana substrate in starter cups and grown at 22° C. (12 h)/20° C. (12 h), are treated at the 1-leaf stage (10 cm tall) by spraying with the active ingredient prepared as described above.
(§3) Plants, used as controls, are treated with an aqueous solution not containing the active material.
After 24 hours, the plants are contaminated by spraying them with an aqueous suspension of Pyrenophora teres spores (12.000 spores per ml). The spores are collected from a 12-day-old culture.
The contaminated barley plants are incubated for 24 hours at about 20° C. and at 100% relative humidity, and then for 12 days at 80% relative humidity.
Grading is carried out 12 days after the contamination, in comparison with the control plants.
Under these conditions, good (at least 70%) is observed at a dose of 500 ppm with the following compounds: […]

Puccinia recondita = assay: In vivo test on Puccinia recondita (brown rust); conditions: wheat plants, spray, 500 ppm, grading 10 days after contamination
Procedure, shortened: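 Wheat (Scipion) at the 1-leaf stage sprayed with compound suspension (acetone/tween/DMSO diluted in water), then inoculated 24 h later with Puccinia recondita spores at 100.000 spores per ml. Plants were held 24 h at 20 °C/100% RH, then 10 days at 20 °C/70% RH; protection graded 10 days post-inoculation versus untreated controls.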

Plasmopara viticola = assay: Plasmopara test (grapevines)/preventive; assay type: in vivo; conditions: preventive spray, 10 ppm of active ingredient, evaluated 6 days after inoculation
Procedure, shortened: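 Young grapevines sprayed preventively with compound formulated in acetone/dimethylacetamide with emulsifier, diluted in water, then inoculated with P. viticola spores after drying. Held 1 day at ~20 °C/100% RH, 4 days in greenhouse at ~21 °C/~90% RH, then misted for 1 day. Efficacy scored 6 days post-inoculation (0% = untreated control, 100% = no disease).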

Uromyces appendiculatus = assay: In vivo test on Uromyces appendiculatus (brown rust of bean); conditions: Saxa variety plants, spray, 500 ppm, grading 10 days after contamination
Description: as §2
Wheat plants (Saxa variety) sown on 50/50 peat soil-pozzolana substrate in starter cups and grown at 24° C., are treated at the 2-leaf stage (9 cm tall) by spraying with the aqueous suspension described above.
as §3
After 24 hours, the plants are contaminated by spraying the leaves with an aqueous suspension of Uromyces appendiculatus spores (150.000 spores per ml). The spores are collected from a 10-day-old contaminated […] and are suspended in water containing 2.5 ml/l of tween 80 10%. The contaminated […] are incubated for 24 hours at 20° C. and at 100% relative humidity, and then for 10 days at 20° C. and at 70% relative humidity. Grading is carried out 10 days after the contamination, in comparison with the control plants.
as §1

Pyricularia grisea = assay type: in vivo; conditions: rice plants, spray, 500 ppm, grading 6 days after contamination
[3] = tested on: Mycosphaerella graminicola; assay: In vivo test on Mycosphaerella graminicola (wheat leaf spot); conditions: wheat plants, spray, 500 ppm, grading 21 to 28 days after contamination
Description: The active ingredients tested are prepared by homogenization in a mixture of acetone/tween/DMSO, then diluted with water to obtain the desired active material concentration.
Wheat plants (Scipion variety), sown on a 50/50 peat soil-pozzolana substrate in starter cups and grown at 22° C. (12 h)/20° C. (12 h), are treated at the 1-leaf stage (10 cm tall) by spraying with the aqueous suspension described above. Plants, used as controls, are treated with an aqueous solution not containing the active material.
After 24 hours, the plants are contaminated by spraying them with an aqueous suspension of cryopreserved Mycosphaerella graminicola spores (500.000 spores per ml). The contaminated wheat plants are incubated for 72 hours at 18° C. and at 100% relative humidity, and then for 21 to 28 days at 90% relative humidity.
Grading (% of efficacy) is carried out 21 to 28 days after the contamination, in comparison with the control plants.
as §1

Phytophthora infestans [4] = assay type: in vivo; conditions: tomato, preventive spray, 100 ppm of active ingredient, evaluated 7 days after inoculation
Pythium aphanidermatum = assay: Pythium test (cucumber)/seed treatment; assay type: in vivo; conditions: 10 g/dt seed of active ingredient, emerged seedlings after 7 days
Description: (§4) The test is performed under greenhouse conditions.
Cucumber seeds, treated with the active compound or compound combinations, solved in N-methyl-2-pyrrolidon and diluted with water to the desired dosages, were sown in 6*6 cm pots containing 4 cm of a 1:1 mix of steamed field soil and sand.
Perlite was incubated with mycelium fragments of Pythium aphanidermatum. 5 ml of infected perlite was scattered between the treated […] seeds. Seeds were then covered by the 1:1 mix of steamed field soil and sand. Pots were incubated in the greenhouse 7 days at 24° C. and 80% relative humidity. Assessment consisted of counting of emerged seedlings. 0% means an efficacy which corresponds to that of the control, while an efficacy of 100% means that all seedlings have emerged.

Pythium irregulare = assay: Pythium test (corn)/seed treatment; assay type: in vivo; conditions: 10 g/dt seed of active ingredient, emerged seedlings after 7 days at 10° C. then 14 days at 20° C.
Description: as §4
Corn seeds, treated with the active compound or compound combinations, solved in N-methyl-2-pyrrolidon and diluted with water to the desired dosages, were sown in 6*6 cm pots containing 4 cm of a 1:1 mix of steamed field soil and sand.
Perlite was incubated with mycelium fragments of Pythium irregulare. 5 ml of infected perlite was scattered between the treated cotton seeds. Seeds were than covered by the 1:1 mix of steamed field soil and sand. Pots were incubated in the greenhouse 7 days at 10° C. and 80% relative humidity and then 14 days at 20° C. and 80% relative humidity.
Assessment consisted of counting of emerged seedlings. 0% means an efficacy which corresponds to that of the control, while an efficacy of 100% means that all seedlings have emerged.

Row | SMILES | Eff. % (Botrytis cinerea) | LogP [1] | Eff. % (Phytophthora infestans [2]) | other results
1 | COc1cccc(C(=NOCc2cccc(N)n2)c2noc(=O)[nH]2)c1 (mixture of isomers) [Example 354] | 71% | 1.29 [a] |  | 
2 | Cn1c(/C(=N\OCc2cccc(NC(=O)CCCCl)n2)c2ccccc2)noc1=O [Example 34] |  | 3.27 [a] | 99% | Eff. % (Alternaria brassicae): 100%
3 | Cn1c(/C(=N\OCc2cccc(NC(=O)C3CC3)n2)c2ccccc2)noc1=O [Example 35] | 71% | 2.92 [a] |  | Eff. % (Pyrenophora teres): 100%
4 | CCCCCOC(=O)Nc1cccc(CO/N=C(/c2cccc(OC)c2)c2noc(=O)n2C)n1 [Example 36] | 86% | 4.46 [a] | 85% | Eff. % (Pyrenophora teres): 71%; Eff. % (Puccinia recondita): 75%
5 | C#CCC(C)(C)OC(=O)Nc1cccc(CO/N=C(/c2ccccc2)c2noc(=O)n2C)n1 [Example 39] |  | 3.94 [a] | 100% | Eff. % (Plasmopara viticola): 97%; Eff. % (Uromyces appendiculatus): 81%; Eff. % (Puccinia recondita): 98%; Eff. % (Alternaria brassicae): 83%
6 | Cn1c(/C(=N\OCc2cccc(NC(=O)c3cccc(F)c3)n2)c2cccc(F)c2)noc1=O [Example 42] |  | 3.79 [a] | 92% | Eff. % (Pyricularia grisea): 71%
7 | Cn1c(/C(=N\OCc2cccc(NC(=O)CCCC[n+]3ccccc3)n2)c2ccccc2)noc1=O.O=C[O-] [Example 67] | 80% | 1.67 [a] | 89% | Eff. % [3]: 90%; Eff. % (Puccinia recondita): 98%
8 | C=CCOC(=O)Nc1cccc(CO/N=C(/c2ccccc2)c2noc(=O)n2C)n1 [Example 109] |  | 3.42 [a] | 93% | Eff. % (Pyricularia grisea): 70%
9 | CCCCCC(=O)Nc1cccc(CO/N=C(/c2ccccc2)c2noc(=O)n2C)n1 [Example 111] |  | 3.89 [a] | 100% | Eff. % (Phytophthora infestans [4]): 95%; Eff. % (Plasmopara viticola): 100%; Eff. % (Uromyces appendiculatus): 72%; Eff. % [3]: 100%; Eff. % (Alternaria brassicae): 70%
10 | Cc1ccc(C(=O)Nc2nc(CO/N=C(/c3ccccc3)c3noc(=O)n3C)cs2)cc1 [Example 180] | 83% | 3.76 [a] | 98% | Eff. % (Plasmopara viticola): 95%
11 | Cn1c(/C(=N\OCc2cccc(NC(=O)C3OCCc4ccccc43)n2)c2ccccc2)noc1=O (stereo not drawn) [Example 227] |  | 4.1 [a] | 100% | Eff. % (Pyricularia grisea): 96%
12 | Cn1c(C(=NOCc2cccc(NC(=O)Cc3cc(F)ccc3F)n2)c2ccccc2)noc1=O [Example 255] |  | 3.62 [a] | 98% | Eff. % (Pyrenophora teres): 70%; Eff. % [3]: 88%
13 | Cn1c(C(=NOCc2csc(NC(=O)c3ccc(Cl)cc3Cl)n2)c2ccccc2)noc1=O [Example 262] |  | 3.94 [a] | 78% | Eff. % (Alternaria brassicae): 83%
14 | CCCOC(=O)Nc1nc(CON=C(c2ccccc2)c2noc(=O)n2C)cs1 [Example 265] |  | 3.35 [a] | 93% | Eff. % (Pyricularia grisea): 70%
15 | Cn1c(/C(=N\OCc2cccc(NC(=O)COCc3ccccc3)n2)c2ccccc2)noc1=O [Example 278] | 78% | 3.87 [a] | 100% | 
16 | CCCC(C)OC(=O)Nc1cccc(CO/N=C(/c2ccccc2)c2noc(=O)n2C)n1 (stereo not drawn) [Example 282] |  | 4.36 [a] | 98% | Eff. % (Phytophthora infestans [4]): 92%; Eff. % (Plasmopara viticola): 96%; Eff. % (Pythium aphanidermatum): 100%; Eff. % (Pythium irregulare): 90%
17 | Cn1c(/C(=N\OCc2cccc(NC(=O)OC(CCl)CCl)n2)c2ccccc2)noc1=O [Example 306] |  | 3.83 [a] | 100% | Eff. % (Pyricularia grisea): 90%
18 | Cc1ccc(/C(=N/OCc2csc(N)n2)c2noc(=O)[nH]2)cc1 [Example 308] |  | 1.84 [a] | 89% | Eff. % [3]: 100%; Eff. % (Puccinia recondita): 94%; Eff. % (Alternaria brassicae): 90%
19 | Cn1c(/C(=N\OCc2cccc(NC(=O)c3ccc(Cl)cc3Cl)n2)c2ccccc2)noc1=O [Example 332] | 71% | 4.14 [a] | 85% | 
20 | Cn1c(/C(=N\OCc2cccc(NC(=O)c3ccc(F)cc3)n2)c2ccccc2)noc1=O [Example 364] |  | 3.62 [a] | 98% | Eff. % (Plasmopara viticola): 100%; Eff. % (Alternaria brassicae): 92%
21 | Cn1c(/C(=N\OCc2csc(NC(=O)c3ccc(Br)cc3)n2)c2ccccc2)noc1=O [Example 373] | 85% | 4.01 [a] | 97% | 
